Source: ChEMBL document CHEMBL5465560, “Selectivity Literature for EUbOPEN Chemogenomic Library” (2024)

Assays:
[1] = biological target: Activin receptor type-2A (Homo sapiens) (UniProt P27037); experiment: Selectivity interaction (KinomeScan (DiscoverX)) EUB0001049a ACVR2A; conditions: at 1 µM
[2] = biological target: T1, Tyrosine-protein kinase receptor TYRO3 (Homo sapiens) (UniProt Q06418); experiment: Selectivity interaction (KinomeScan (DiscoverX)) EUB0000666a TYRO3; conditions: at 10 µM
T1 sequence (whole entry): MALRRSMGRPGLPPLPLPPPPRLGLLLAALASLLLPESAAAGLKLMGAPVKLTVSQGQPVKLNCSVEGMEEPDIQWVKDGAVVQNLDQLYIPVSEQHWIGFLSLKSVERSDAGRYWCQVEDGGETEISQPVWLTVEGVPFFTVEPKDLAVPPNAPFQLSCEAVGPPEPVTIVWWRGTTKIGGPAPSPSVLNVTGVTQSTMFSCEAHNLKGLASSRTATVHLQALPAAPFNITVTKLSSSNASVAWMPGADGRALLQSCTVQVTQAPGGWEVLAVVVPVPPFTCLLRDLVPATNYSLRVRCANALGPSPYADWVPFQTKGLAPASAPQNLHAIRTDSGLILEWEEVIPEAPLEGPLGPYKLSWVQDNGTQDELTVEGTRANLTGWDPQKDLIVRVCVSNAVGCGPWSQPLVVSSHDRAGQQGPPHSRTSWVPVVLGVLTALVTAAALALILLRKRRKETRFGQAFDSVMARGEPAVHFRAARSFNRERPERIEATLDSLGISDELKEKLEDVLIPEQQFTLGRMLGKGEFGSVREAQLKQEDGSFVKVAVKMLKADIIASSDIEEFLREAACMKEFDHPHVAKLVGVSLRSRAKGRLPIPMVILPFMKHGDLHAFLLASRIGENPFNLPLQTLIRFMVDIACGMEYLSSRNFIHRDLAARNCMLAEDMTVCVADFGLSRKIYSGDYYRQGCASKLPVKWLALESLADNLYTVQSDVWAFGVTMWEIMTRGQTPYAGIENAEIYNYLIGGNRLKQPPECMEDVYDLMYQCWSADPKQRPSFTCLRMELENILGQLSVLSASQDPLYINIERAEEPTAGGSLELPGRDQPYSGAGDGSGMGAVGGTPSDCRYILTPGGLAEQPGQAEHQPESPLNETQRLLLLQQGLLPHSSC

[3] = biological target: D(3) dopamine receptor (Homo sapiens, UniProt P35462); experiment: Selectivity interaction (GPCR panel (PDSP screen)) EUB0001079a DRD3; conditions: at 10 µM
[4] = biological target: Protein kinase C theta type (Homo sapiens, UniProt Q04759); conditions: at 10 µM
[5] = biological target: T2, Cyclin-dependent kinase 11A (Homo sapiens) (UniProt Q9UQ88); conditions: at 10 µM
T2 sequence (whole entry): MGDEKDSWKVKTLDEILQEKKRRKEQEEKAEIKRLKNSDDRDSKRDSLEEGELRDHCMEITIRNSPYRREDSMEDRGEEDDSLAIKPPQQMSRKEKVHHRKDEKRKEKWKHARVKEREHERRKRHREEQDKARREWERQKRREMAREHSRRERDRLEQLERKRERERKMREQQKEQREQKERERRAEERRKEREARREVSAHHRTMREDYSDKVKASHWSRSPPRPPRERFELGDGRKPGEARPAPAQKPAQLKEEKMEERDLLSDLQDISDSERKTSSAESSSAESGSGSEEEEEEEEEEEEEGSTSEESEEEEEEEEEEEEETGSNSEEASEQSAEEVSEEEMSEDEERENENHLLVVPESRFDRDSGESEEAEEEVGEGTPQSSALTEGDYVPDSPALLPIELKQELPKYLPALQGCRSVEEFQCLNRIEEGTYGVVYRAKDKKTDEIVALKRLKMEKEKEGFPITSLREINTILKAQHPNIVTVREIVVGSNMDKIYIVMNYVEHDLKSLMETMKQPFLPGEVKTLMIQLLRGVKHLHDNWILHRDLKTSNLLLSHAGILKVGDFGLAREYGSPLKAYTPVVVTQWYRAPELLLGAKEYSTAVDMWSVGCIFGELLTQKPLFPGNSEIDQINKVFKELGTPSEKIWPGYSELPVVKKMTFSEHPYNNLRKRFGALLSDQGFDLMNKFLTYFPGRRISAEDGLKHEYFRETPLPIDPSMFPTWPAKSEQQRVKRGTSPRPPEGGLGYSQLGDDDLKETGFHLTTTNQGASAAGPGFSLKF

[6] = biological target: Cyclin-dependent kinase 18 (Homo sapiens) (UniProt Q07002); experiment: Selectivity interaction (KinomeScan (DiscoverX)) EUB0001619a CDK18; conditions: at 1 µM
[7] = biological target: T3, Serine/threonine-protein kinase TAO1 (Homo sapiens) (UniProt Q7L7X3); experiment: Selectivity interaction (KinomeScan (DiscoverX)) EUB0000655a TAOK1; conditions: at 10 µM
T3 sequence (whole entry): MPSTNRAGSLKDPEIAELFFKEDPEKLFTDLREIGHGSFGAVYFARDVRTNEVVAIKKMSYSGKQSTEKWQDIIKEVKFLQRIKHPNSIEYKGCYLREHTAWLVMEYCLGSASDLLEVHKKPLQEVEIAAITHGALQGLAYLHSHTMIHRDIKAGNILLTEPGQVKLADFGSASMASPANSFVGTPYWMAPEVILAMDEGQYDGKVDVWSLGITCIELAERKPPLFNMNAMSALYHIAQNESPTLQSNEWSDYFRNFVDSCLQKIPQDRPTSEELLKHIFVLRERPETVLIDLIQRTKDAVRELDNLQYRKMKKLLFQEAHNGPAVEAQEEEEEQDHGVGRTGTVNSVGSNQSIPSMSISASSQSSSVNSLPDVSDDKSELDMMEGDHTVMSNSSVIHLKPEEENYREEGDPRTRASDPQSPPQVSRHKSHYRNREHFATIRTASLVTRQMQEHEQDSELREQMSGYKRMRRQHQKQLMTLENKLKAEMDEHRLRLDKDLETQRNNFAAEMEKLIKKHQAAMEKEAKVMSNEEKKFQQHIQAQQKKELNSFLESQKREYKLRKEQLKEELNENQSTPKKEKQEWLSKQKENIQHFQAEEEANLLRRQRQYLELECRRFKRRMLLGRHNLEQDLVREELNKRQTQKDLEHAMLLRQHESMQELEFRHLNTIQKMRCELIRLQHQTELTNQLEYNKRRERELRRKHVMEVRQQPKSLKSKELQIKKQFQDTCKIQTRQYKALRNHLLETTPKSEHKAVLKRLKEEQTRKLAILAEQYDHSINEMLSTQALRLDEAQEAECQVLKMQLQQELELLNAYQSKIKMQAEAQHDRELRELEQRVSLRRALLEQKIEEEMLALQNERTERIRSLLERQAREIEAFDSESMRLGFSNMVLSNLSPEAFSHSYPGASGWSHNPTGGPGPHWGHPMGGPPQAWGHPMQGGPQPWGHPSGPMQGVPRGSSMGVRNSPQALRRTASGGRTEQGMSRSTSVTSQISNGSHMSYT

[8] = biological target: Tyrosine-protein kinase Fes/Fps (Homo sapiens) (UniProt P07332); experiment: Selectivity interaction (ProQinase) EUB0000171b FES
Sequence of Tyrosine-protein kinase Fes/Fps (Homo sapiens) (P07332 whole entry): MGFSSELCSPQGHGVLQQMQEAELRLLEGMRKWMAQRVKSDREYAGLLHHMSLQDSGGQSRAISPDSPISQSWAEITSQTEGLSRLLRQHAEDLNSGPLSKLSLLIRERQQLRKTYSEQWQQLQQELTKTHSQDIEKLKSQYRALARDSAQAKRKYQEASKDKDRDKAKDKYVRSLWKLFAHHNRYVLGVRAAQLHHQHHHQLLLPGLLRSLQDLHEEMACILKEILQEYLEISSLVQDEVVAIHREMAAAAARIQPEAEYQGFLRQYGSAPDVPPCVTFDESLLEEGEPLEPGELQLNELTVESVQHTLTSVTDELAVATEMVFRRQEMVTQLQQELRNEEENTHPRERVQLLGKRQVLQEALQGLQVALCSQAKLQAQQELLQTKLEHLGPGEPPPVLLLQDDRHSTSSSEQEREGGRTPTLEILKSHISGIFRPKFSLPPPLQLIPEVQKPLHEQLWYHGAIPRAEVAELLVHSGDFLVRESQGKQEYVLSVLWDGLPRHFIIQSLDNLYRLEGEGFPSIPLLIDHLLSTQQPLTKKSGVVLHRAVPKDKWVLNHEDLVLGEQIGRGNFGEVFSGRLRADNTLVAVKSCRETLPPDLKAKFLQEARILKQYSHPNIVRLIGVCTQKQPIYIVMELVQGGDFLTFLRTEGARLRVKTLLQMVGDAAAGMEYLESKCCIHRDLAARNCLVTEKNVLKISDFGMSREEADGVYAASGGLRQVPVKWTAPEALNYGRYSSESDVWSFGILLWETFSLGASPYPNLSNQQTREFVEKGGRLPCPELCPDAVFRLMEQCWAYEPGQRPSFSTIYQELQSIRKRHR

Sequence of Activin receptor type-2A (Homo sapiens) (P27037 whole entry): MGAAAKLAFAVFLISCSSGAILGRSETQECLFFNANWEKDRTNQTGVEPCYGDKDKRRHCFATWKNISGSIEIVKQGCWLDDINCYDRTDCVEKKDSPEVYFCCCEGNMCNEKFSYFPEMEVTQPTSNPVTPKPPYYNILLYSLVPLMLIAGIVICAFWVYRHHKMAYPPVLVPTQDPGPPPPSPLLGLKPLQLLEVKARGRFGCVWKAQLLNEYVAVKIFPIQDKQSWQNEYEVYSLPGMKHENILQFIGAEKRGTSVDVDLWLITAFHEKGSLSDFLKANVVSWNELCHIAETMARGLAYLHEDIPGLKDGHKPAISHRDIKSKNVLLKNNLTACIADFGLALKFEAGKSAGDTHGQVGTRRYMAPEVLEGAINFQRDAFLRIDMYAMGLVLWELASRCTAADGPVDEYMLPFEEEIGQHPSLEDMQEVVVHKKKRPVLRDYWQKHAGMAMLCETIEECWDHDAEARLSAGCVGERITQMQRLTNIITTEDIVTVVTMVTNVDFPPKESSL
Sequence of Cyclin-dependent kinase 18 (Homo sapiens) (Q07002 whole entry): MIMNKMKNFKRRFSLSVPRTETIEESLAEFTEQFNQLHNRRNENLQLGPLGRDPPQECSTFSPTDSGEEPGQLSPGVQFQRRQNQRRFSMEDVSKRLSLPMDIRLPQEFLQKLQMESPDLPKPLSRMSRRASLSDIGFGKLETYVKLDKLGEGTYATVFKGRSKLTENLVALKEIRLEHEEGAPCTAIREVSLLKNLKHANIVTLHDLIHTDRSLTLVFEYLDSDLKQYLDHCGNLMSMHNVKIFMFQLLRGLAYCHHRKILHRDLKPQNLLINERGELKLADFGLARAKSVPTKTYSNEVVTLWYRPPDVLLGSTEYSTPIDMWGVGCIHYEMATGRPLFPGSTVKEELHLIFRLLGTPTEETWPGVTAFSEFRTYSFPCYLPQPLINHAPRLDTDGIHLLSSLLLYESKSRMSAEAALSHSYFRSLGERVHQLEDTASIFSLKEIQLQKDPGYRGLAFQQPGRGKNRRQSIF
Sequence of D(3) dopamine receptor (P35462 whole entry): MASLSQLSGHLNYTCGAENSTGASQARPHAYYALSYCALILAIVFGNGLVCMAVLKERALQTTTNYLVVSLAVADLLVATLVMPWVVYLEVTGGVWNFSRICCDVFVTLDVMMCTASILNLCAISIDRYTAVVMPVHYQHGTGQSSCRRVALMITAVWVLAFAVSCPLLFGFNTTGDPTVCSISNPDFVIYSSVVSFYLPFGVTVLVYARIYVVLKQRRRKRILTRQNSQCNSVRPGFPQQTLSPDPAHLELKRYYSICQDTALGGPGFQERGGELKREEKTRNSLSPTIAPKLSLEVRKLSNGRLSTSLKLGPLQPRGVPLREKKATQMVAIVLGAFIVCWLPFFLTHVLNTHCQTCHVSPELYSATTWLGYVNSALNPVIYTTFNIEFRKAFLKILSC
Sequence of Protein kinase C theta type (Q04759 whole entry, looked up): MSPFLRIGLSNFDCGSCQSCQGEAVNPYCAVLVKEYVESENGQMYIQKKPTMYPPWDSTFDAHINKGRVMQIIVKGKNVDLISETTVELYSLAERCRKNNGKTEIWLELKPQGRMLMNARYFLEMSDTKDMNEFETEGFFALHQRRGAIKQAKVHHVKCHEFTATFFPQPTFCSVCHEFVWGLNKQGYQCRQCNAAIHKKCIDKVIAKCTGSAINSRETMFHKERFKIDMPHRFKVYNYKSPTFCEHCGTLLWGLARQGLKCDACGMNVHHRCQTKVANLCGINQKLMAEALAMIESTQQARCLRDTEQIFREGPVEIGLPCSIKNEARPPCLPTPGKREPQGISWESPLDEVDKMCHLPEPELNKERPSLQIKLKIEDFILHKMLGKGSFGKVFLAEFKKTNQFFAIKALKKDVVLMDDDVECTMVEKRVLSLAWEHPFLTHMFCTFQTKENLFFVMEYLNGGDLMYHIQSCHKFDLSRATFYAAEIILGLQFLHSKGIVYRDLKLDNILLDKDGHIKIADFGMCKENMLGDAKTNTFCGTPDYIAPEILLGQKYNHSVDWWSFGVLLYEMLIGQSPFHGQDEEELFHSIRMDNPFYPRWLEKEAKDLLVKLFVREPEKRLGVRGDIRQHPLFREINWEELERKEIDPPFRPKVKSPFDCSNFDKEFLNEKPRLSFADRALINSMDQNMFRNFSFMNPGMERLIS

Question: Which % of control [1] does the source give for `COc1cc(Nc2nc(C)cc(-c3cnn4nc(OC)ccc34)n2)cc(C(F)(F)F)c1` here?
Answer: 98%

Question: `O=C(NOC[C@H](O)CO)c1ccc(F)c(F)c1Nc1ccc(I)cc1F` was tested. Which % of control [2] did it give?
Answer: 80%

Question: Which % of inhibition [3] does the source give for `Nc1cnc(N2CCc3cc(S(=O)(=O)Nc4c(F)cc(Cl)cc4F)cc(N4CCCC4=O)c32)nc1` [TP-020n] here?
Answer: 7.41%

Question: `CCN(CC)CCCCNc1ncc2cc(-c3cc(OC)cc(OC)c3)c(NC(=O)NC(C)(C)C)nc2n1` was tested. Which % of control [4] did it give?
Answer: 100%

Question: For `Cc1cc([C@@H](C)Nc2ccccc2C(=O)O)c2nc(N3CCOCC3)cc(=O)n2c1` [AZD-6482], which % of control [5] is on record?
Answer: 100%

Question: Which % of control [6] does the source give for `N#Cc1cccc(-c2c[nH]c3ncnc(N4CCOCC4)c23)c1` here?
Answer: 100%

Question: `CN(C)CCOc1ccc(-c2nc(-c3ccncc3)c(-c3ccc4c(c3)CC/C4=N\O)[nH]2)cc1` was tested. Which % of control [7] did it give?
Answer: 81%

Question: `C=CC(=O)Nc1cccc(C(=O)Nc2ccc(Nc3cc(-c4[nH]c(SC)nc4C)ccn3)cc2)c1` was tested. Which % of control ([8]; at 1 µM) did it give?
Answer: 88%

Question: What about the % of control ([8]; at 5 µM) of the same compound?
Answer: 91%
